Source: PMC9428149, “Tackling recalcitrant Pseudomonas aeruginosa infections in critical illness via anti-virulence monotherapy” (Nature Communications, 2022)

Legend:
[1] = tested on: MvfR-regulated small molecules in PA14; assay: Production of HAQs, 2-AA, DHQ and AA in PA14 cultures (LC-MS); conditions: PA14, 50µM inhibitor; for % Production AA: anthranilic acid, precursor control
[2] = tested on: pyocyanin production in PA14; assay: Pyocyanin production assay; conditions: PA14; 50µM of each inhibitor (method says 10 μM); vs vehicle
[3] = tested on: pqsA promoter (PA14 PpqsA-GFPASV); assay: pqsA-GFP reporter expression; format: cell-based, Pseudomonas aeruginosa; conditions: PA14 PpqsA-GFPASV; 50µM per b210 (method b76 says 10 µM)
Protocol: The expression levels of pqsA, which is representative of the pqsABCDE operon transcription, were monitored in the presence of the MvfR inhibitors using PA14 cells containing the PpqsA-GFPASV, a reporter construct of the pqsA promoter fused to a short half-life GFP gene in, such that quantitative quenching of fluorescence corresponds to pqsA promoter repression[22],[32],[48]. […] GFP fluorescence levels were measured at λex = 485 nm/λem = 535 nm after 10 seconds of shaking every 15 min up to 12 h. The IC50 of PpqsA-GFP expression levels was performed as above using the same 13 different concentrations (0.0122–50 μM) for each of the 13 compounds tested.

| Compound | % Production 2-AA [1] [%] | % Production DHQ [1] [%] | % Production HHQ [1] [%] | % Production HQNO [1] [%] | % Production PQS [1] [%] | % Production AA [1] [%] | % Production Pyocyanin [2] [%] | % Production pqsA-GFP [3] [%] |
| --- | --- | --- | --- | --- | --- | --- | --- | --- |
| CC(=O)c1ccc(NC(=O)CC(=O)Nc2ccc(C#N)cc2)cc1 [D49] | 90 | 106 | 120 | 101 | 119 | 131 | 66 | 28 |
| N#Cc1ccc(NC(=O)CC(=O)Nc2ccc(C(=O)C(F)(F)F)cc2)cc1 [D50] | 140 | 89 | 107 | 103 | 104 | 176 | 84 | 102 |
| N#Cc1ccc(NC(=O)CC(=O)Nc2ccc([N+](=O)[O-])cc2)cc1 [D51] | 7 | 12 | 3 | 18 | 6 | 263 | 3 | 10 |
| N#Cc1ccc(NC(=O)CC(=O)Nc2ccc(N)cc2)cc1 [D52] | 101 | 103 | 92 | 92 | 86 | 115 | 87 | 90 |
| CC(=O)Nc1ccc(NC(=O)CC(=O)Nc2ccc(C#N)cc2)cc1 [D53] | 93 | 98 | 75 | 85 | 88 | 56 | 103 | 85 |
| N#Cc1ccc(NC(=O)CC(=O)Nc2ccc(NC(=O)C(F)(F)F)cc2)cc1 [D54] | 117 | 108 | 103 | 101 | 101 | 82 | 94 | 85 |
| CS(=O)(=O)Nc1ccc(NC(=O)CC(=O)Nc2ccc(C#N)cc2)cc1 [D55] | 95 | 80 | 130 | 98 | 115 | 117 | 100 | 131 |
| N#Cc1ccc(NC(=O)CC(=O)Nc2ccc(I)cc2)cc1 [D56] | 72 | 136 | 63 | 69 | 62 | 180 | 13 | 6 |
| O=C(CC(=O)Nc1ccc([N+](=O)[O-])cc1)Nc1ccc(Oc2ccccc2)cc1 [D58] | 22 | 45 | 20 | 23 | 19 | 101 | 6 | 9 |
| O=C(CC(=O)Nc1ccc(Oc2ccccc2)cc1)Nc1ccc(I)cc1 [D59] | 92 | 93 | 99 | 97 | 93 | 131 | 72 | 81 |
| O=C(CC(=O)Nc1ccc([N+](=O)[O-])cc1O)Nc1ccc(Oc2ccccc2)cc1 [D61] | 12 | 8 | 1 | 8 | 6 | 112 | 6 | 7 |
| N#Cc1ccc(NC(=O)CC(=O)Nc2ccc(Oc3ccccc3)cc2)c(N)c1 [D62] | 10 | 16 | 2 | 13 | 9 | 107 | 7 | 6 |
| N#Cc1ccc(NC(=O)CC(=O)Nc2ccc(Oc3ccccc3)cc2)c(O)c1 [D63] | 5 | 4 | 0 | 4 | 4 | 68 | 6 | 7 |
| O=C(CC(=O)Nc1ccc(Oc2ccccc2)cc1)Nc1ccc(Br)cc1 [D64] | 78 | 85 | 88 | 88 | 100 | 50 | 48 | 61 |
| O=C(CC(=O)Nc1ccc(Oc2ccccc2)cc1)Nc1ccc(Cl)cc1 [D67] | 84 | 105 | 101 | 105 | 106 | 155 | 26 | 41 |
| O=C(CC(=O)Nc1ccc(Oc2ccccc2)cc1)Nc1ccc(F)cc1 [D68] | 84 | 109 | 121 | 121 | 137 | 127 | 33 | 52 |
